pIC50: −log10 of the molar value.
What was measured:
RBL-2H3 [1] = experiment: Inhibition of rat RBL2H3 […] assessed as reduction of beta hexasaminidase release at 25 uM; format: functional
RBL-2H3 [2] = experiment: Inhibition of rat RBL2H3 […] assessed as reduction of beta hexasaminidase release; format: functional, cell-based
[3] = Toxicity in rat RBL2H3 cells; format: cell-based, RBL-2H3; details: read-out: MTD
RBL-2H3 [4] = experiment: Inhibition of rat RBL2H3 […] assessed as reduction of beta hexasaminidase release at 10 uM; format: functional

| SMILES | inhibition at 25 µM (RBL-2H3 [1]) [%] | pIC50 (RBL-2H3 [2]) | MNTC [3] [µM] | inhibition at 10 µM (RBL-2H3 [4]) [%] |
| --- | --- | --- | --- | --- |
| CCCCCCCCCCCCCCCCCCOC[C@H](COP(=O)([O-])OCC[N+](C)(C)C)OC [(R)-EDELFOSINE] | 79 | 5.15 | 25 |  |
| CCCCCCCCCCCCCCCCNc1c2c(nc3c(C)cc(C)cc13)CC(C)(C)CC2=O | 7 |  |  |  |
| CCCCCCCCCCCCCCCCCCOP(=O)([O-])OC1CC[N+](C)(C)CC1 [PERIFOSINE] |  | 5.30 | 25 | 88 |
| CCCCCCCCCCCCCCCCCC(=O)Nc1c(C)c(CC)nc2ccccc12 | 10 |  |  |  |
| CCCCCCCCCCCCCCCCOP(=O)([O-])OCC[N+](C)(CC)CC |  | 5.36 | 50 | 88 |
| CCCCCCCCCCCCCCCCOP(=O)([O-])OCC[N+](C)(C)C [MILTEFOSINE] |  | 5.34 | 25 | 87 |
| CCCCCCCCCCCCCCCCOC(=O)C[n+]1csc(CCO)c1C | 93 | 5.26 | 50 |  |
| CCCCCCCCCCCCCCCCOP(=O)([O-])OC1CC2CCC(C1)[N+]2(C)C (stereo not drawn) |  | 5.24 | 25 | 82 |
| CCCCCCCCCCCCCCCCSCC(COC)COP(=O)([O-])OCC[N+](C)(C)C (stereo not drawn) [ILMOFOSINE] |  | 5.19 | 50 | 84 |
